This is an account of results in ChEMBL document CHEMBL3991601, “The target landscape of clinical kinase drugs” (Science, 2017).

Active and inactive are the calls of the source. Some results are limits rather than exact numbers.
Note: in the data inactive means no Kd found up to 30 µM.

Sequence of Activin receptor type-1-like (P37023 whole entry): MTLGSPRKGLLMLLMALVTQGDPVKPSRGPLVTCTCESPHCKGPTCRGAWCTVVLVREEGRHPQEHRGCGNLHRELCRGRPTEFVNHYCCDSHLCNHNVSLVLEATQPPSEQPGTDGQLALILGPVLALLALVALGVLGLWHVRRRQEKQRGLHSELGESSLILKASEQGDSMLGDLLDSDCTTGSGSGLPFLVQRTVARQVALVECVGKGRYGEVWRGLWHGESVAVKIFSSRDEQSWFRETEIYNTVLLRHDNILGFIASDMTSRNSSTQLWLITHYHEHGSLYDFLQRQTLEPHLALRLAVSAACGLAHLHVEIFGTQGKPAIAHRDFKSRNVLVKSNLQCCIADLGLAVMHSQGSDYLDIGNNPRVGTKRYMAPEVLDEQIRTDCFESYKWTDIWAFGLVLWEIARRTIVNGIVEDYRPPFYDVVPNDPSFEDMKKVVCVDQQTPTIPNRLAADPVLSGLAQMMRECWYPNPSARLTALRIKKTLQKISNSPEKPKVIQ

The first test has as its target Activin receptor type-1-like (Homo sapiens, UniProt P37023).
Turning to `CNC(=O)c1cccc(-c2ccc3c(N4CCOC[C@@H]4C)nc(N4CCOC[C@@H]4C)nc3n2)c1` [VISTUSERTIB], the Kd is > 30 µM (inactive). Take `Cc1c(NC(=O)OC[C@@H]2COCCN2)cn2ncnc(Nc3ccc4c(cnn4Cc4cccc(F)c4)c3)c12` [AC-480]: the Kd is > 30 µM (inactive). With `C[C@]1(O)C[C@@H](c2nc(-c3ccc4ccc(-c5ccccc5)nc4c3)c3c(N)nccn32)C1` [LINSITINIB], the Kd was > 30 µM (inactive). The same measure, in the same setting: the figure for `COc1ccc2c(OCc3nnc4ccc(-c5ccccc5)nn34)ccnc2c1` [AMG-208] is > 30 µM (inactive); for `O=C(NOC[C@H](O)CO)c1ccc(F)c(F)c1Nc1ccc(I)cc1F` [MIRDAMETINIB] it is > 30 µM (inactive).

The next test addresses T1, General transcription and DNA repair factor IIH helicase subunit XPD (Homo sapiens, UniProt P18074).
T1 sequence (P18074 whole entry): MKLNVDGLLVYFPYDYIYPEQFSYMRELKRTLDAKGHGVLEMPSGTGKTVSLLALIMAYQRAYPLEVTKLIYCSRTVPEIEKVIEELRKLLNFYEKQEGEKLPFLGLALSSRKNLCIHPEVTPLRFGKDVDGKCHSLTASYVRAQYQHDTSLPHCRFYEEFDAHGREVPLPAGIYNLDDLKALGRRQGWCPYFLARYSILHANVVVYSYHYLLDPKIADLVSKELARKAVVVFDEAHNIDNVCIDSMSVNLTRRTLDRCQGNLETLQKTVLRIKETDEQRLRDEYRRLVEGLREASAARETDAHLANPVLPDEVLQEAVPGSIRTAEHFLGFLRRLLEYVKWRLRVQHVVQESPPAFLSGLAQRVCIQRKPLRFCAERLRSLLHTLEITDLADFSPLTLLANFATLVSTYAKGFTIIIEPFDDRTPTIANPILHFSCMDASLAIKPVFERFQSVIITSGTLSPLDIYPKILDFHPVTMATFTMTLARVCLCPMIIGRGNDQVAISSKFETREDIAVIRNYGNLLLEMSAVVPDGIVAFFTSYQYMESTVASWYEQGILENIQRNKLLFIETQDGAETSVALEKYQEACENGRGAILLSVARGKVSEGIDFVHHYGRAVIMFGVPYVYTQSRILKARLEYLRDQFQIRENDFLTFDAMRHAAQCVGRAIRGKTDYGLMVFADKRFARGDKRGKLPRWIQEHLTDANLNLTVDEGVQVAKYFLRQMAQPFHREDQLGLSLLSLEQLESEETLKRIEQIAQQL
As for `CCOc1ccn(-c2ccc(F)cc2)c(=O)c1C(=O)Nc1ccc(Oc2ccnc(N)c2Cl)c(F)c1` [BMS-777607], the Kd was > 30 µM (inactive).

In the case of `FC(F)(F)c1ccc(CNc2ccc(Cc3c[nH]c4ncc(Cl)cc34)cn2)cn1` [PEXIDARTINIB], the Kd was > 30 µM (inactive). Same read-out and setting: next, `C=CC(=O)Nc1cc(Nc2nccc(-c3cn(C)c4ccccc34)n2)c(OC)cc1N(C)CCN(C)C` [OSIMERTINIB]: > 30 µM (inactive); `COc1cc2c(Oc3ccc4[nH]c(C)cc4c3F)ncnc2cc1OCCCN1CCCC1` [CEDIRANIB]: > 30 µM (inactive).
